SMILES strings stand for the structures.

In the test the test system is tumor that expresses high levels of CXCL12. Description: Tumor growth in mice bearing a subcutaneous CXCL12-expressing tumor.

`c1cc(CN2CCCNCCNCCCNCC2)ccc1CN1CCCNCCNCCCNCC1` [AMD3100]: the “Delay in tumor growth, co-treatment versus TAX alone” value (AMD3100 subcutaneous once a day for 5 days, then 12.5 mg/kg TAX intraperitoneal one to three days after the final dose) is on record as “synergistic effect”.
In the case of `CC(=O)O[C@H]1C(=O)[C@@]2(C)[C@H]([C@H](OC(=O)c3ccccc3)[C@]3(O)C[C@H](OC(=O)[C@H](O)[C@@H](NC(=O)c4ccccc4)c4ccccc4)C(C)=C1C3(C)C)[C@]1(OC(C)=O)CO[C@@H]1C[C@@H]2O` [TAX, paclitaxel], the Tumor growth entry (12.5 mg/kg paclitaxel (TAX) intraperitoneal, 18 hours prior to assay, mice not administered AMD3100) was “delayed by TAX treatment, but resumes soon after the treatment is discontinued”.

For the origin of these results see patent US11305017B2, “Anti-fugetactic agent and anti-cancer agent combination therapy and compositions for the treatment of cancer” (The General Hospital Corporation, priority 2015, dated 2022).
